Source: patent US20220289753A1, “SHP2 INHIBITORS” (IRBM S.P.A., priority 2019, published 2022)

Experiments:
[1] = target: T1, SHP-2 enzyme (Met1-Leu525) (Homo sapiens, UniProt Q06124); assay: SHP2 inhibition enzymatic assay (DiFMUP substrate, IRS1 peptide activation); type: biochemical; details: SHP2 wt; activated by 500 nM IRS1 peptide; 75 μM DiFMUP substrate
T1 construct: synthetized by Origene, Met1-Leu525, cat #TP750155; purchased Origene TP750155
T1 sequence (Q06124 1-525): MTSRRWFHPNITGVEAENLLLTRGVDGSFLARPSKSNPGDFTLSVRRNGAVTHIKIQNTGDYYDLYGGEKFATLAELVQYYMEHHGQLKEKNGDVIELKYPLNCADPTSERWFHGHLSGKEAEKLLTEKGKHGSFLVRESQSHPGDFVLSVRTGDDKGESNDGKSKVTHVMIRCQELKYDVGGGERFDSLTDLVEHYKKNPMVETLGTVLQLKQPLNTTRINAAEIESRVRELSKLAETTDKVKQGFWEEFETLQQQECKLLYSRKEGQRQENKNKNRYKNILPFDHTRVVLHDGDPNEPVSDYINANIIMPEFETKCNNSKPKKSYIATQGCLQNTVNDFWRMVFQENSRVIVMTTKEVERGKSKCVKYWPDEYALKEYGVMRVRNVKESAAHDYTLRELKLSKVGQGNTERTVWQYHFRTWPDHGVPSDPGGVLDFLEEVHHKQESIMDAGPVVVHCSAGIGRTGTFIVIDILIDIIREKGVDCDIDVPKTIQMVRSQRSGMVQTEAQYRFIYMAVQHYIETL
In short: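 SHP-2 (Met1-Leu525, 0.5 nM final) preincubated 30 min with compounds and IRS1 activating peptide in HEPES pH 7.2 buffer with NaCl, KCl, EDTA, tween-20, 5 mM DTT. DiFMUP then added for 30 min at room temperature and fluorescence read. IC50 from four-parameter logistic fit of % inhibition.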

[2] = system: ERK phosphorylation in KYSE-520 cells; assay: Phospho-ERK cellular assay (Advanced phospho-ERK1/2 (Thr202/Tyr204) TR-FRET kit); type: cell-based; details: Homo sapiens, KYSE-520, 2 h, KYSE-520 cells, 2 h at 37° C., TR-FRET; read-out: pERK IC50
In short: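 KYSE-520 cells were treated 2 h at 37° C with serially diluted compounds, then lysed. Phospho-ERK1/2 (Thr202/Tyr204) was detected by TR-FRET after overnight antibody incubation at room temperature. IC50 came from a four-parameter logistic fit; lower signal reflects greater SHP2 inhibition.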

IC50 [1]: 0.5 to 3 µM | IC50 [2]: > 5 µM
SMILES: N[C@@H]1c2cccnc2CC12CCN(c1nc3nc(Sc4ccnc(OC5COC5)c4Cl)cnc3[nH]1)CC2 [Example 153, (S)-1′-(5-((3-chloro-2-(oxetan-3-yloxy)pyridin-4-yl)thio)-1H-imidazo[4,5-b]pyrazin-2-yl)-5,7-dihydrospiro[cyclopenta[b]pyridine-6,4′-piperidin]-5-amine]
